According to article PMC10671052, “Naphthyl-Substituted Indole and Pyrrole Carboxylic Acids as Effective Antibiotic Potentiators—Inhibitors of Bacterial Cystathionine γ-Lyase” (International Journal of Molecular Sciences, 2023):
≈ marks a conversion by molar mass, not a printed value. Each block holds one compound with its values, some of them ahead of it.

Columns and labels:
[1] = physchem; assay type: physicochemical; conditions: for solubility at 2 h: 25 °C, pH 7.4, aqueous buffer, kinetic from dmso stock
Method: A stock solution of a compound (10 mM in DMSO, 10 μL) was added to 990 μL of 100 mM sodium phosphate buffer (pH 7.4) and incubated at 25 °C for 2 h with constant shaking. The suspension was filtered through the PVDF membrane filter (Merck Millipore, Burlington, MA, USA). To 320 µL of the filtrate, 80 µL of acetonitrile was added and mixed. The mixture was transferred to a vial and analyzed by ultra-high-performance liquid chromatography (UHPLC) with UV detection. Concentrations were calculated from a 5-point calibration curve. The calibration range was 1 to 100 μM. The controls were diclofenac and nicardipine. All compounds were tested in triplicate.

[2] = LogD7.4, miniaturized shake flask method; assay type: physicochemical; conditions: 1-octanol / 100 mM sodium phosphate buffer, pH 7.4, 1-octanol / 100 mM sodium phosphate buffer pH 7.4; read-out: Measured logD7.4
Method: Coefficients of distribution between 1-octanol and 100 mM sodium phosphate buffer (pH 7.4) were determined by the miniaturized shake flask method. Namely, 5 μL of a 10 mM compound’s solution in DMSO was dissolved in 245 μL of 1-octanol saturated with phosphate buffer. Next, 500 μL of phosphate buffer saturated with 1-octanol was added, followed by mixing for 3 h. […] After that, 50 μL of the octanol phase (top layer) was aspirated and diluted with 500 μL of 1-octanol saturated with phosphate buffer. Then, the remaining octanol phase was removed; 50 μL of the buffer layer was aspirated and diluted with 500 μL of phosphate buffer saturated with 1-octanol. Both the octanol and phosphate buffer samples were analyzed by LC–MS/MS. The distribution coefficient was determined according to the following equation: logD7.4 = log10 (peak area for octanol sample/peak area for buffer sample). […] All compounds were tested in triplicate.

[3] = Caco-2 cell permeability; assay type: in vitro ADME; conditions: human
Method: The culture medium consisted of high-glucose DMEM containing 10% of fetal bovine serum, 4 mM L-glutamine, 1% of a solution of nonessential amino acids (PanEco, Moscow, Russia), 100 U/mL penicillin, and 100 μg/mL streptomycin. The cells were maintained for 21 days at 37 °C and 5% CO2. The medium was refreshed every 3 days. A Lucifer yellow rejection assay was applied to determine cell monolayer integrity. […] The Lucifer yellow rejection value was calculated using the equation: LY % rejection = 100*(1−FIb/FIa), where FIb is the fluorescence in the basolateral compartment and FIa is the fluorescence in the apical compartment. […] Both apical-to-basolateral (AB) and basolateral-to-apical (BA) transport were assessed. For apical-to-basolateral transport, 0.3 mL of a test compound solution was added to the apical side, and 0.8 mL of HBSS with 0.5% of BSA was added to the basolateral side. For basolateral-to-apical transport, 0.8 mL of a test compound solution was added to the basolateral side and 0.3 mL of HBSS with 0.5% of BSA was added to the apical side. The Caco-2 cell monolayers were then incubated for 2 h at 37 °C. The pH values of the apical and basolateral compartments were 7.4. […] The supernatant was transferred to a vial and analyzed by liquid chromatography coupled with tandem MS (LC–MS/MS). The AB (or BA) apparent permeability coefficients (Papp, 10^–6 cm/s) were calculated according to the following formula [40, 41]: Papp = (V × ∆C)/(∆t × A × C0), where V is the volume of the receiver compartment (cm^3), C0 is the initial drug concentration in the donor compartment (μM), ∆C is the concentration in the receiver compartment (μM), ∆t is the incubation time (s), and A is the surface area of the cell monolayer (cm^2). An efflux ratio was calculated by dividing Papp (BA) by Papp (AB). All compounds were tested in duplicate.

[4] = in vitro; assay type: in vitro ADME; conditions: human, plasma
Method: Plasma protein binding was assessed using RED device inserts with built-in cellulose acetate dialysis membranes (molecular weight cutoff: 8 kDa). The final concentration of the test compound in human plasma was 5 μM. The samples were prepared by placing 300 μL of human plasma into the plasma compartment of the RED device and 500 μL of phosphate-buffered saline (pH 7.4) into the buffer compartment. The RED device was fixed to a shaker, placed in a CO2 (5%) incubator, and incubated for 6 h at 37 °C. After an equilibration step, 100 μL aliquots were taken from each compartment; 100 μL of plasma was added to the buffer compartment aliquot and 100 μL of buffer was added to the plasma compartment aliquot. After mixing, 600 μL of acetonitrile containing an internal standard was added. […] All compounds were tested in duplicate. Fraction bound fb was determined via the following equation: fb (%) = [1 − (Cb/Cp)] × 100, where Cb is the concentration of an analyte in the buffer compartment (μM), and Cp is the concentration of the analyte in the plasma compartment (μM).

[5] = Metabolic stability in rat liver microsomes; conditions: for microsomal CLint at 1 µM / half-life at 1 µM: rat, microsomes; for microsomal CLint at 1 µM: pH 7.4, CLint; for half-life at 1 µM: pH 7.4, t1/2, rat liver microsomes
Method: The metabolic stability of a test compound was evaluated based on the rate of disappearance during incubation with rat liver microsomes. […] The natural logarithm of a peak area ratio (compound peak area/internal standard peak area) was plotted against incubation time, and the slope of the line was determined.

[6] = tested on: S. aureus ATCC 25923; experiment: MIC of antibiotics alone and with potentiators, broth microdilution; conditions: S. aureus ATCC 25923, no potentiator
Method: (§1) Overnight (ON) culture of a specific strain was grown in the liquid Luria–Bertani nutrient medium (LB broth, BD Difco) for 18 h at 37 °C, with agitation at 180 rpm using an Innova 44R orbital shaker (Eppendorf, Hamburg, Germany). After a certain period, 50 µL of the ON culture was transferred into 5 mL of the LB medium and grown for 3 h at 37 °C with agitation. Growth in the liquid medium was assessed by means of turbidity of the suspension, measured using a Densi-La-Meter II densitometer (Erba Lachema s.r.o., Brno, Czech Republic). Then, the bacterial suspension was diluted to the concentration 10^6 cells/mL with sterile LB and used as a seed culture [38, 39].
(§2) For the assessment of MICs, 96-well microtiter plates were utilized at 200 µL of a medium per well. Each well was filled with 100 µL of the seed culture. After that, 10 µL of a solution of each tested synthetic compound (potentiators) was added into each experimental well. Finally, 90 µL of twofold serial dilutions of an antibiotic in a sterile LB was added into individual wells.
(§3) As a positive control, we set up wells with 100 µL of the bacterial culture and 100 µL of the sterile LB medium. […] Negative-control wells contained 200 µL of the sterile medium. The plates were incubated in a thermostat for 18–20 h at 37 °C. The bacterial growth was assessed as optical density at 600 nm on a CLARIOstar microplate reader (BMG LABTECH GmbH, Ortenberg, Germany)).

[7] = tested on: S. aureus INA00761 (MRSA); experiment: as above; conditions: no potentiator
Method: as §1, §2, §3

SMILES: COC(=O)C1=C(C)NC(C)=C(C(=O)OCCN(C)Cc2ccccc2)C1c1cccc([N+](=O)[O-])c1 (stereo not shown) [Nicardipine]
solubility at 2 h [1]: 5.16 ± 0.23 µM (≈ 2.47 µg/mL)
Solubility ([1]; 2 h, pH 7.4): 5.2 µM (≈ 2.49 µg/mL)

SMILES: CC(=O)Nc1ccc(O)cc1 [Paracetamol, reference compound]
logD [2]: 0.29 ± 0.02

SMILES: O=c1ccc2ccc(O)cc2o1 [Umbelliferone]
CLint ([5]; rat liver microsomes, cofactor NADPH, 1 µM): 8.8 µL/min/mg
microsomal CLint at 1 µM ([5]; rat liver microsomes, cofactor NADPH): 8.81 ± 1 µL/min/mg
microsomal CLint at 1 µM ([5]; rat liver microsomes, cofactor UDPGA): 180 ± 0.7 µL/min/mg
half-life at 1 µM ([5]; cofactor NADPH): 2.64 ± 0.301 h
half-life at 1 µM ([5]; cofactor UDPGA): 0.1283 ± 0.0005 h

SMILES: CC1(C)S[C@@H]2[C@H](NC(=O)[C@H](N)c3ccccc3)C(=O)N2[C@H]1C(=O)O [amp, ampicillin]
MIC of antibiotic alone [6]: 0.3 µg/mL
MIC of antibiotic alone [7]: res
MIC of antibiotic alone ([7]; listed as ampicillin): resistant

The next lines start with the values.

solubility at 2 h [1]: > 100 µM
SMILES: O=C(O)Cc1ccccc1Nc1c(Cl)cccc1Cl [Diclofenac sodium]

efflux ratio at 2 h, 10 μM ([3]; Caco-2, Papp (BA) / Papp (AB)): 1.04
Papp A→B at 2 h, 10 μM ([3]; Caco-2, 10 μM, 2 h, pH 7.4): 30.2 ± 2.9 ×10⁻⁶ cm/s
Papp B→A at 2 h, 10 μM ([3]; Caco-2, 10 μM, 2 h, pH 7.4): 31.6 ± 1.1 ×10⁻⁶ cm/s
Fraction bound fb ([4]; 6 h, 5 μM, pH 7.4): 85.8%
fraction unbound at 6 h, 5 μM ([4]; pH 7.4, Fraction bound fb): 0.142
SMILES: CC(C)NCC(O)COc1cccc2ccccc12 (stereo not shown) [Propranolol, reference compound]

MIC of antibiotic alone [6]: 12.5 µg/mL
MIC of antibiotic alone [7]: res
MIC of antibiotic alone ([7]; listed as kanamycin): resistant
SMILES: NC[C@H]1O[C@H](O[C@H]2[C@H](O)[C@@H](O[C@H]3O[C@H](CO)[C@@H](O)[C@H](N)[C@H]3O)[C@H](N)C[C@@H]2N)[C@H](O)[C@@H](O)[C@@H]1O [km, kanamycin]

MIC of antibiotic alone [6]: 2.5 µg/mL
MIC of antibiotic alone [7]: 10 µg/mL
SMILES: CCn1cc(C(=O)O)c(=O)c2cc(F)c(N3CCNCC3)cc21 [nor, norfloxacin]
